Assay results from paper PMC9774391 (ACS Omega, 2022).

Columns and labels:
AChE [1] = biological target: T1, AChE (Homo sapiens, UniProt P22303); experiment: biochemical; settings: for inhibition at 1000 µM: 10^–3 M; for inhibition at 100 µM: 10^–4 M; for inhibition at 10 µM: 10^–5 M; for inhibition at 1 µM: 10^–6 M; for inhibition at 0.1 µM: 10^–7 M; for inhibition at 0.01 µM: 10^–8 M; for inhibition at 0.001 µM: 10^–9 M
Experimental: (§1) According to the modified Ellman approach outlined in our team’s earlier work, the AChE and BChE inhibitory activities of the obtained compounds were evaluated.[18]−[21]

BChE = BChE (Homo sapiens, UniProt P06276); experiment: biochemical; settings: for inhibition at 1000 µM: 10^–3 M; for inhibition at 100 µM: 10^–4 M
Experimental: as §1

MAO-A = biological target: T2, MAO-A (Homo sapiens, UniProt P21397); experiment: In vitro MAO-A inhibition assay (fluorometric); assay type: biochemical; settings: for inhibition at 1000 µM: 10^–3 M; for inhibition at 100 µM: 10^–4 M
T2 sequence (P21397 1-527): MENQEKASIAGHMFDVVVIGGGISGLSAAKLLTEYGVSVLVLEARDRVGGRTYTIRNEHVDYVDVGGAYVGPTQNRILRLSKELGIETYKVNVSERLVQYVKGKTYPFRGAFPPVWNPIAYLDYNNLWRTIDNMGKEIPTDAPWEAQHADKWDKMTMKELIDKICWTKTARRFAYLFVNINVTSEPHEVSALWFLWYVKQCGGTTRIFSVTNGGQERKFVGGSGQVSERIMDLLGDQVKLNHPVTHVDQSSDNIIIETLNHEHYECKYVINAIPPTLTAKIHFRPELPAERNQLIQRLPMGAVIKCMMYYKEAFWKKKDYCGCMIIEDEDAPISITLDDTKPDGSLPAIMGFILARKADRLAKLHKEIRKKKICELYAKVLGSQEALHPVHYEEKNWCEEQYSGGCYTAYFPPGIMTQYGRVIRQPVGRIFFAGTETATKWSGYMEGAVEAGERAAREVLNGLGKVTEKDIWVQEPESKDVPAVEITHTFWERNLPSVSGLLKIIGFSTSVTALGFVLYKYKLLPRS

MAO-B = biological target: T3, MAO-B (Homo sapiens, UniProt P27338); experiment: In vitro MAO-B inhibition assay (fluorometric); assay type: biochemical; settings: for inhibition at 1000 µM: 10^–3 M; for inhibition at 100 µM: 10^–4 M; for inhibition at 10 µM: 10^–5 M; for inhibition at 1 µM: 10^–6 M; for inhibition at 0.1 µM: 10^–7 M; for inhibition at 0.01 µM: 10^–8 M; for inhibition at 0.001 µM: 10^–9 M
T3 sequence (P27338 1-520): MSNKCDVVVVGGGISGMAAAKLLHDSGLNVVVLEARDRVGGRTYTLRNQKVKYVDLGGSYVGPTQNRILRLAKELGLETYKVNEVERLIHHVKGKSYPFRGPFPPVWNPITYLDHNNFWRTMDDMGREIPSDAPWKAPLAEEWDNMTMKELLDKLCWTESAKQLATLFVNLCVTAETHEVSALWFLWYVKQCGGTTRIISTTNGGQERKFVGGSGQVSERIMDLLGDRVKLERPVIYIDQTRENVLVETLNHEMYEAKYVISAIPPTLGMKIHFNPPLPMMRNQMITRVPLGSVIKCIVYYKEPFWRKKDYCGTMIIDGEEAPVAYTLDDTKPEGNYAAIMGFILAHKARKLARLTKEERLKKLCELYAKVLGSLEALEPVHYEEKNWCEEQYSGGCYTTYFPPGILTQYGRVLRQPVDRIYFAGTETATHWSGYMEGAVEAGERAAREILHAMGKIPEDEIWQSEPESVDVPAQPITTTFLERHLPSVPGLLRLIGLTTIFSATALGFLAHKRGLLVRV

[2] = DPPH free-radical scavenging activity assay; settings: serial dilution 10^–3–10^–9 M; read-out: IC50 on DPPH antioxidant activity
Experimental: This approach is based on evaluating the free-radical scavenging abilities of the stable 1,1-diphenyl-2-picrylhydrazyl (DPPH) radical. To create the DPHH solution, 9.86 mg of DPPH was weighed and diluted to 25 mL with methanol. The test wells were then filled with 100 μL of the DPPH solution and 100 μL of the test solutions. Only 200 μL of methanol was used for the blank reading, while the control reading required the usage of 100 μL each of methanol and the DPPH solution. Following incubation, a spectrophotometric measurement at 517 nm was carried out.[26],[27]

Beta Amyloid 1–42 (Aβ42) = biological target: T4, Beta Amyloid 1–42 (Aβ42) (Homo sapiens, UniProt P05067); experiment: Beta Amyloid 1–42 (Aβ42) inhibitor screening assay; assay type: biochemical; settings: for inhibition at 100 µM: 10^–4 M; for inhibition at 100 µM / inhibition at 1000 µM: read-out: % β-amyloid plaque inhibition; for inhibition at 1000 µM: 10^–3 M; for IC50: read-out: IC50 on β-amyloid plaque aggregation
T4 construct: The Beta Amyloid 1–42 (Aβ42) Ligand Screening Assay kit; purchased BioVision, Milpitas, CA
From the text: The Beta Amyloid 1–42 (Aβ42) Ligand Screening Assay kit (BioVision, Milpitas, CA) technique based on the fluorometric approach served as the basis for the experimental process.[21],[28],[29]

Cytotoxicity test (MTT) = assay type: cell-based; settings: NIH/3T3 mouse embryonic fibroblast cells (ATCC CRL-1658), NIH/3T3 mouse fibroblast healthy cell line
Experimental: The NIH/3T3 cells were incubated according to the manufacturer’s recommendations. In 96-well plates, NIH/3T3 cells were seeded at a density of 1 × 10^4 cells per well. The MTT test was conducted in line with the previously mentioned standards.[19],[22],[23],[28],[30]

AChE [3] = biological target: T1, AChE; experiment: Enzyme kinetics on AChE (Lineweaver–Burk); assay type: biochemical
Experimental: The experimental procedures used in the kinetic investigations were identical to those used in the inhibition experiments. […]. Acetylthiocholine iodide (ATC) and butyrylthiocholine iodide (BTC) solutions were utilized as the substrates for the ChE enzymes, with serial dilutions at six different concentrations (600, 300, 150, 75, 37.5, and 18.75 μM). The tyramine substrate solution (concentrations ranging from 20 to 0.625 μM) was produced for the MAO enzymes at six different concentrations. Separate measurements were conducted both with and without an inhibitor. Using the Microsoft Office Excel 2013 program, the resulting absorbance values were compared to various substrate concentrations, and Lineweaver–Burk plots were created.[19]−[22]
The absorbance data from the experiments and the substrate concentrations were used to generate Lineweaver–Burk plots. The graphic’s x-axis stands for 1/[S] […] […]. The intersection of these four lines on the diagram was used to define the type of substrate and inhibitor reaction against the enzyme.
Reversible and irreversible inhibition of enzymes are the two categories that inhibition is commonly subdivided into. In irreversible inhibition, the inhibitor either creates a recalcitrant complex structure or establishes a covalent bond with the enzyme. […]

T1 sequence (P22303 32-614): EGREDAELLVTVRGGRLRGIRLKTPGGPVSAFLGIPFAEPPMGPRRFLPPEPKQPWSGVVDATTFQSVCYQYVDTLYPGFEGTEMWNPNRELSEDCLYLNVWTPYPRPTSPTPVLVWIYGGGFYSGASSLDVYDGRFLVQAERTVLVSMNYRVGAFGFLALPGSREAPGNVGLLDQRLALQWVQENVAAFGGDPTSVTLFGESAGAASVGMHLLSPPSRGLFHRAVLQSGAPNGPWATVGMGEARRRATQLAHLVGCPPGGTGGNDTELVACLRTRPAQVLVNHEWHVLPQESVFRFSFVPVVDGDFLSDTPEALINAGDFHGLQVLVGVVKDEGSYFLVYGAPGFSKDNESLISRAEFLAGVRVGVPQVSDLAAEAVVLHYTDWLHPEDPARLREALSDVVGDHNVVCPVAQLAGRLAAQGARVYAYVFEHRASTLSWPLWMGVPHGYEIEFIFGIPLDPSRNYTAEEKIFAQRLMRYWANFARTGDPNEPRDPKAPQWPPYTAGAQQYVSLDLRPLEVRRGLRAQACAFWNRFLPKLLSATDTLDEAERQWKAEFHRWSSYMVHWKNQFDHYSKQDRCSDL
T4 sequence (P05067 672-713 limits assumed): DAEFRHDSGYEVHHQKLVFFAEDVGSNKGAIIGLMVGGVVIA
BChE, sequence (P06276 29-602): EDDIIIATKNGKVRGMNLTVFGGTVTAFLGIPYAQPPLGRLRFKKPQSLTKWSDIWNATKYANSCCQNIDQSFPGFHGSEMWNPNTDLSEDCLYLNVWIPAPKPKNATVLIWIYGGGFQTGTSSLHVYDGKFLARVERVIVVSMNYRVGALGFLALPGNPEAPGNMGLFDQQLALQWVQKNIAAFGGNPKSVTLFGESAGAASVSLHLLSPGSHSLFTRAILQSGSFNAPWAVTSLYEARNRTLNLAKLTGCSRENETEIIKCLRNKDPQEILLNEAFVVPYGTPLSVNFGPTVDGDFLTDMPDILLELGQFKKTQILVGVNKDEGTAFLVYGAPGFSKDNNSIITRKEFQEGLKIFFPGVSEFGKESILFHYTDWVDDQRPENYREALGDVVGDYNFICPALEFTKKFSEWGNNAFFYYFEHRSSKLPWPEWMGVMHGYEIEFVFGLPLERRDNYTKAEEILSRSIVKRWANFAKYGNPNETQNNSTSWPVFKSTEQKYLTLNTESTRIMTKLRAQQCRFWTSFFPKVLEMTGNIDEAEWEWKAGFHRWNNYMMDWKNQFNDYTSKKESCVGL

Row | Structure (SMILES) | IC50 (AChE [1]) | inhibition at 1000 µM (AChE [1]) | inhibition at 100 µM (AChE [1]) | inhibition at 10 µM (AChE [1]) | inhibition at 1 µM (AChE [1]) | inhibition at 0.1 µM (AChE [1]) | inhibition at 0.01 µM (AChE [1]) | inhibition at 0.001 µM (AChE [1]) | inhibition at 1000 µM (BChE) | inhibition at 100 µM (BChE) | inhibition at 1000 µM (MAO-A) | IC50 (MAO-B) | inhibition at 1000 µM (MAO-B) | inhibition at 100 µM (MAO-B) | inhibition at 10 µM (MAO-B) | inhibition at 1 µM (MAO-B) | inhibition at 0.1 µM (MAO-B) | inhibition at 0.01 µM (MAO-B) | inhibition at 0.001 µM (MAO-B) | IC50 [2] | further results
1 | COc1ccc2c(c1)C(=O)/C(=C/c1ccc(NC(=O)CN(C)CCCN(C)C)cc1)C2 [D38] | 47.3 ± 1.6 nM | 93.2 ± 1.72% | 90.5 ± 1.3% | 81.6 ± 1.17% | 74 ± 0.956% | 68.2 ± 0.862% | 37.2 ± 0.562% | 19.7 ± 0.711% | 93.3 ± 1.37% | 90.6 ± 1.3% | 95 ± 2.39% | 35.9 ± 1.3 nM | 94.8 ± 1.43% | 88.6 ± 1.38% | 84.6 ± 1.58% | 78.2 ± 1.41% | 62.5 ± 0.925% | 42.3 ± 0.623% | 20.7 ± 0.318% | 190 ± 7.8 nM | IC50 (BChE): 78.2 ± 2.9 nM; inhibition at 10 µM (BChE; 10^–5 M): 85.4 ± 1.3%; inhibition at 1 µM (BChE; 10^–6 M): 78.6 ± 1.11%; inhibition at 0.1 µM (BChE; 10^–7 M): 58.7 ± 0.952%; inhibition at 0.01 µM (BChE; 10^–8 M): 28.8 ± 0.714%; inhibition at 0.001 µM (BChE; 10^–9 M): 18.4 ± 0.633%; inhibition at 100 µM (MAO-A): 24.1 ± 0.853%; inhibition at 100 µM (Beta Amyloid 1–42 (Aβ42)): > 50%; IC50 (Cytotoxicity test (MTT)): 6.81 ± 0.118 µM
2 | CCCN(C)CC(=O)Nc1ccc(/C=C2\Cc3cc(OC)c(OC)cc3C2=O)cc1 [D30] | 25.7 ± 0.9 nM | 98.2 ± 1.37% | 96.6 ± 1.28% | 91.8 ± 1.21% | 88.3 ± 1.1% | 74.3 ± 1.05% | 36.6 ± 0.627% | 16.4 ± 0.421% | 99.6 ± 2.02% | 46.43 ± 0.408% | 74.1 ± 2.09% | 45.6 ± 1.7 nM | 97.5 ± 1.39% | 90.2 ± 1.47% | 82.5 ± 1.38% | 74.6 ± 1.29% | 66 ± 0.966% | 38.1 ± 0.458% | 19.8 ± 0.632% | 246 ± 11 nM | inhibition at 100 µM (MAO-A): 28.3 ± 1.08%; inhibition at 1000 µM (Beta Amyloid 1–42 (Aβ42)): 89.6 ± 1.86%; inhibition at 100 µM (Beta Amyloid 1–42 (Aβ42)): 81.5 ± 1.96%; IC50 (Beta Amyloid 1–42 (Aβ42)): 178 ± 7.4 nM; IC50 (Cytotoxicity test (MTT)): 0.601 ± 0.0145 µM
3 | CCCN(C)CC(=O)Nc1ccc(/C=C2\Cc3ccc(OC)cc3C2=O)cc1 [D29] | 22.4 ± 0.8 nM | 97.2 ± 1.32% | 94.3 ± 1.46% | 91.8 ± 1.21% | 88.3 ± 1.02% | 75.6 ± 0.974% | 34.3 ± 0.857% | 20.1 ± 0.357% | 61.1 ± 0.99% | 26.914 ± 0.019% | ≥ 90% | 41.2 ± 1.8 nM | 91.8 ± 1.37% | 87.6 ± 1.25% | 82.2 ± 1.21% | 74.2 ± 1.3% | 66 ± 1.84% | 40.3 ± 0.745% | 20.4 ± 0.628% | 188 ± 8 nM | IC50 (MAO-A): 112 ± 4.2 nM; inhibition at 10 µM (MAO-A; 10^–5 M): 77.4 ± 1.13%; inhibition at 1 µM (MAO-A; 10^–6 M): 67.3 ± 1.08%; inhibition at 0.1 µM (MAO-A; 10^–7 M): 49.4 ± 0.567%; inhibition at 0.01 µM (MAO-A; 10^–8 M): 34 ± 0.422%; inhibition at 0.001 µM (MAO-A; 10^–9 M): 24.6 ± 0.328%; fold stronger MAO-A inhibition compared to moclobemide (MAO-A; ratio of IC50 values): 50 ×; type of inhibition of AChE (AChE [3]; Lineweaver–Burk plots): mixed inhibition; Ki (AChE [3]; secondary plot of Lineweaver–Burk data, read-out: steady-state inhibition constant (Ki), AChE): 18.5 nM; inhibition at 1000 µM (Beta Amyloid 1–42 (Aβ42)): 80.3 ± 2.05%; inhibition at 100 µM (Beta Amyloid 1–42 (Aβ42)): 71.9 ± 1.88%; IC50 (Beta Amyloid 1–42 (Aβ42)): 124 ± 4.9 nM; IC50 (Cytotoxicity test (MTT)): 73.6 ± 1.76 µM
